Assay results: patent publication US20040123348A1, “Method for producing a plant with a high-growth rate” (priority 2002, published 2004)

Tests used:
[1] = tested on: histone deacetylase; experiment: Effect of tricostatin A (TSA) treatment on histone H4 acetylation, immunoblot of rice callus cells; format: cell-based; conditions: 1 μM TSA with 20 μM ABA, 1 to 6 hours
Description: Rice callus cells, leaves and roots were incubated in MS medium with (+) or without (−) 20 μM ABA for one hour, transferred to MS medium containing 20 μM ABA and 1 μM TSA, incubated for 1 to 6 hours and then subjected to TSA treatment. Next, about 0.1 g of rice tissues was pulverized, homogenized with a buffer solution containing 50 mM Tris-HCl (pH 8.0), 150 mM NaCl, 10% glycerol, 0.5% Triton X-100, 2 mM phenylmethanesulfonyl fluoride, 1 μg/ml aprotinine, 1 μg/ml pepstatin and 1 μg/ml leupeptin, and then incubated at 4° C. for one hour. After incubation, the mixed solution was centrifuged at 4° C. for 5 minutes, and the protein concentration was determined using Bradford solution (BioRad, USA). The protein extract was separated from 12% SDS gel, transferred to polyvinylidene difluoride (PVDF) membrane (Immobilon-P, Millipore), and then reacted with mouse HDAC1 (mHDAC1), histone H4 (H4), acetylated histone (AcH4), the secondary antibody wherein primary antibody to acetylated histone H4 (AcH4) (Upstate Biotechnology, USA) is combined with alkaline phosphatase. […] Thus, it was confirmed that the expression of tetra-acetylated histone H4 as reduced in Ai::OsHDAC1 rice plant is increased again by TSA treatment.

[2] = tested on: Ai::OsHDAC1 rice plant; experiment: Phenotype and growth in MS medium with 20 μM ABA, Ai::OsHDAC1 rice plant; format: in vivo; conditions: 2 weeks
Description: (§1) In order to investigate the effect of overexpression of OsHDAC1 on the phenotype and growth of Ai::OsHDAC1 rice plant, Ai::OsHDAC1 rice plant was incubated as the first generation and then, young seedlings or calluses at the second generation were transferred to MS medium with or without 20 μM ABA and incubated for 2 weeks. After incubation, the whole shape of rice plant, and leaves, collars and roots were observed. As the control group, untransformed rice plant was also observed. FIGS. 6a, 6b, 6c and 6d are photographs showing the growth and morphological change of Ai::OsHDAC1 rice plant, the change in the growth of leaves, the change of collars and the change of roots, respectively. In each drawing, NT denotes untransformed rice plant and lanes 2, 3 and 4 in FIGS. 6b, 6c and 6d denote respective individuals of transformed Ai::OsHDAC1 rice plant.

[3] = tested on: OsHDAC1 transcription product; experiment: Effect of ABA treatment on expression of OsHDAC1 transcription product in leaves of Ai::OsHDAC1 rice plant; format: cell-based; conditions: 20 μM ABA, MS medium
Description: While leaves of Ai::OsHDAC1 rice plant produced by above Example 5 was incubated in MS medium with or without 20 μM ABA, a total RNA was isolated from leaves at regular intervals to examine the expression level of OsHDAC1 transcription product. As the result, it was identified that the expression of the transcription product reaches at the maximum level one hour after ABA treatment and rapidly decreases after 6 hours. Then, callus cells, leaves and roots of rice plant were incubated in MS medium with or without 20 μM ABA for one hour, and a total RNA was extracted. […] Further, the same result could be confirmed from Western blot analysis of OsHDAC1 protein.

[4] = tested on: untransformed rice plant; experiment: Phenotype and growth in MS medium with 20 μM ABA, untransformed rice plant; format: in vivo; conditions: 2 weeks
Description: as §1

Row | Compound | total H4 after TSA treatment [1] | expression level of tetra-acetylated histone H4 after TSA treatment ([1]; both Ai::OsHDAC1 and untransformed rice plant callus cells) | growth of Ai::OsHDAC1 rice plant in the presence of ABA [2] | time after ABA treatment at which expression of the transcription product reaches the maximum level [3] | growth of untransformed plant in the presence of ABA [4]
1 | CC(/C=C/C(=O)NO)=C\[C@@H](C)C(=O)c1ccc(N(C)C)cc1 [TSA, tricostatin A] | substantially not changed | greatly increased | – | – | –
2 | CC1=CC(=O)CC(C)(C)[C@@]1(O)/C=C/C(C)=C\C(=O)O [ABA, abscisic acid] | – | – | increase of growth | one | inhibition of growth
